Laboratory results published in US10732172B1, “Methods, systems, and compositions for determining blood clot formation, and uses thereof” (President and Fellows of Harvard College, priority 2015, dated 2020).
Entries after “also recorded” stand apart in the source; their conditions may differ.

Key:
Format in all cases: cell-based, human
platelets [1] = assay: Platelet coverage on TNF-α pretreated, fixed (chemopreserved) endothelium in microfluidic device, whole blood perfusion
Experimental: (§1) By way of example, a microfluidic device is fabricated using photolithography followed by soft lithography with polydimethysiloxane (“PDMS”). According to this example, six microfluidic devices are placed on a single PDMS mold of the size of a standard glass slide, e.g., 75×25 millimeters (“mm”). The microfluidic devices are first exposed to oxygen plasma for 30 seconds using, for example, a PE-100 benchtop plasma system from Plasma Etch. Then, the microfluidic devices are treated with 1% (3-aminopropyl)-trimethoxysilane (“APTMS”), from Sigma, in 100% anhydrous ethanol for ten minutes. After subsequent rinsing with 70% and 100% ethanol, the microfluidic devices are dried and type I collagen from rat tail, e.g., 100 micrograms/milliliter (“μg/ml) from Corning, is introduced in microchannels of the microfluidic devices.
The microfluidic devices are left overnight at 37° C. in a 5% carbon dioxide (“CO2”) incubator, after which they are rinsed with Endothelial Growth Medium-2 (“EGM-2”) from Lonza. Human Umbilical Vein Endothelial Cells (“HUVEC”) from a mixed donor, by Lonza, are kept in culture and suspended at 12.5 million cells/milliliter (“mL”) in EGM-2, after confluence. The suspension is introduced into the collagen-coated microchannels, after which the microfluidic devices are incubated upside down for 20 minutes. A fresh HUVEC suspension is then introduced in the microchannels, after which the microfluidic devices are incubated for eight hours to promote cell attachment across the channel. The microchannels are, then, rinsed with EGM-2, sometimes containing a freshly prepared solution of tumor necrosis factor (“TNF-α”), which is a recombinant from E. coli from Sigma. […]
(§2) Platelets are visualized using time-lapse fluorescence imaging (e.g., 20×, NA 0.4). A time series of a 10-frame panorama (e.g., 6 mm long×0.665 mm wide region of a microchannel), at a lapse of every 30 seconds is recorded. […]

platelets [2] = assay: Light transmission aggregometry (LTA) with ADP or collagen as agonist; settings: blood treated ex vivo with abciximab, all doses; ADP 10 μM or collagen 2 μg/mL
Experimental: The LTA is performed in accordance with manufacturer instructions. For example, the LTA uses adenosine diphosphate (“ADP”) 10 μM and collagen 2 μg/mL from Chrono-Log.
Blood from healthy donors was treated ex vivo with abciximab or used untreated. These samples as well as clinical blood samples from subjects were centrifuged at 290 g for 10 min (no brake applied) to collect platelet rich plasma (PRP). To obtain a reference solution for each sample, PRP was centrifuged at high speed to pellet platelets (1,000 g, 10 min) and collect platelet poor plasma (PPP). CaCl2 was added to each sample at a final concentration of 1 mM to recalcify plasma before each run. Cifuni et al. “CalDAG-GEFI and protein kinase C represent alternative pathways leading to activation of integrin alphaIIbeta3 in platelets.” Blood 112, 1696-1703 (2008). LTA has then been performed at 37° C. under magnetic stirring using a Chrono-Log Corporation instrument.

platelets [3] = assay: Platelet coverage in collagen-coated microfluidic device, whole blood perfusion; settings: blood with different doses of abciximab; shear 750 sec^-1
Experimental: as §1
500 microliters (“μL”) of whole blood are pipetted into a fluid reservoir fitted to one end of a microchannel. Platelets are labeled with human CD41-PE antibody (e.g., 10 μL/mL from Invitrogen) that is directly added to the blood samples and incubated at room temperature for 10 minutes. […]
as §2

Substance: abciximab
- abciximab concentration at which optimal effects on platelet adhesion are observed (platelets [1]; fixed endothelium pretreated with TNF-α 5 ng/mL): ≥ 10 µg/mL
- difference in platelet inhibition between 10 μg/ml and 100 μg/ml (platelets [1]; fixed endothelium pretreated with TNF-α 5 ng/ml): insignificant
- platelet coverage (platelet adhesion) on fixed endothelium (platelets [1]; healthy donor whole blood with abciximab 0-100 μg/mL, endothelium pretreated with TNF-α 5 ng/mL then fixed, shear 750 s^-1): decreases with increase in abciximab drug concentration; also recorded: dose-dependent inhibition of platelet adhesion; also recorded: significant dose-dependent platelet inhibition
- platelet aggregation by light transmission aggregometry (platelets [2]): no aggregation is observed; also recorded: virtually complete inhibition of platelet aggregation; also recorded: no platelet aggregability
- platelet coverage on collagen-coated microfluidic device (platelets [3]): insignificant decrease in platelet adhesion and aggregation; also recorded: small suppressive effect on platelet adhesion; also recorded: poor sensitivity
